Here are results for 1 compound from US20130064812A1, “COMBINATION THERAPIES FOR HEMATOLOGIC MALIGNANCIES” (Gilead Calistoga LLC, priority 2011, published 2013).

SMILES strings stand for the structures.

The target in one series is PIP5Kα (Homo sapiens, UniProt Q99755). Kind of series: InvitroGen Adapta kinase assay, PIP5Kα. Type of series: biochemical. Particulars: Other Phosphoinositide kinases; head prints no unit.
Series [1] deals with T47D and HS-578T cell lines. Kind of series: Proliferation of breast cancer cell lines (AlamarBlue). Type of series: cell-based. Particulars: 48 hrs and 72 hrs. As to the method: T47D and HS-578T cell lines were grown in the presence of serum plus the indicated concentrations of the compound of formula I. Proliferation was measured in triplicate wells by AlamarBlue® assay (Invitrogen) 96-well plates.
On the technique in general: Alamar Blue is a resazurin reagent that responds to reducing activity.

The subject of the next series is INA-6 cells. In words: Cleavage of caspases and PARP in INA-6 cells (western blot). Particulars: INA-6, 0-5 μM, 120 h. Type of series: cell-based, human. The text has this:
Whole-cell lysates were subjected to sodium dodecyl sulfate-polyacrylamide gel electrophoresis (SDS-PAGE) separation, transferred to Pure Nitrocellulose membranes (Bio-Rad Laboratories, Hercules, Calif.), and immunoblotted with anti-AKT, phospho(p)-AKT (Ser473, Thr 308), ERK1/2, P-ERK1/2, P-PDK1, STAT, P-STAT, P-FKRHL, P-70S6K, LC3, and PI3K/p110α Abs (Cell Signaling Danvers, Mass.); anti-p110β, PI3K/p110δ, Glyceraldehyde 3-phosphate dehydrogenase (GAPDH), α-tubulin, and actin Abs (Santa Cruz Biotechnology, CA); and anti-p110γ Ab (Alexis, San Diego, Calif.): and anti-LC3 Ab (Abgent, San Diego, Calif.).
Total cell lysates were subjected to immunoblotting using anti-caspase-3, -8, -9, PARP, and α-tubulin Abs. FL indicates full-length protein, and CL indicates cleaved protein.

In series [2] the test system is LB and INA-6 MM cells with BMSCs. Kind of series: Paracrine MM cell growth, cytokine secretion and signaling with BMSCs. Format: cell-based, human. As to the method: MM cells (2×10^4 cells/well) were cultured for 48 h in BMSC coated 96-well plates (Costar, Cambridge, Mass.), in the presence or absence of drug. DNA synthesis was measured by [3H]-thymidine (Perkin-Elmer, Boston, Mass.) uptake, with [3H]-thymidine (0.5μ Ci/well) added during the last 8 h of 48 h cultures. All experiments were performed in quadruplicate.
Cytokine secretion by human BMSCs cocultured with MM cells was assessed by ELISA. […] After 48 h, supernatants were harvested and stored at −80° C. Cytokines were measured using Duo set ELISA Development Kits (R&D Systems, Minneapolis, Minn.). All measurements were carried out in triplicate.
The cytokine levels in culture supernatants were assessed using Proteome Profiler Antibody Arrays Panel A (R&D Systems, Minneapolis, Minn.), Supernatants from co-cultures with BMSCs were incubated for 4 hours with membranes arrayed with Abs against 37 cytokines, according to manufacturer's instructions.
DNA synthesis was determined by [3H]-thymidine incorporation. Data represent means (±SD) of triplicate cultures.
Error bars indicate SD (±).
INA-6 cells cultured with or without BMSCs were treated with compound for 48 h. Total cell lysates were subjected to immunoblotting using indicated antibodies, FIG. 34F. Actin was used as a loading control.

The test system of series [3] is primary MCL cells and MCL cell lines. In words: PI3K signaling in primary MCL cells and MCL cell lines. Type of series: cell-based, human.
The test system of a further series is CLL cells. Type of series: cell-based, human. On the procedure: (§1) This pro-survival effect was abrogated by the compound of formula I, which reduced CLL cell viability to 85±3% of controls at 48 hours (mean±SEM, n=15, *P<0.05). […] BCR cross-linking induces secretion of the chemokines CCL3 and CCL4 by CLL cells, which was quantified in CLL supernatants by ELISA.
(§2) The CCL3 concentrations were reduced by the compound of formula I from 943±535 pg/mL to 156±8 pg/mL, and the CCL4 concentrations from 7433±4463 pg/mL to 316±53 pg/mL (mean±SEM, n=5, *P<0.05).

A further series relates to CLL-NLC co-cultures. Type of series: cell-based, human. On the procedure: as §1, §2
In series [4] the test system is CLL cells on stromaNKTert. Kind of series: Calcein-based adhesion assay of CLL cells on stroma. Type of series: cell-based, human. As to the method: a confluent monolayer of CD154+L or StromaNKTert cells was generated by plating 1×10^4 cells/well in 96-well plates for 24 hours. Single cell suspensions of CLL cells at 0.5×10^6 cells/ml were then labeled with 1 μg/mL Calcein-AM (Invitrogen) for 1 hour. Cells were then spun down and treated with compound or vehicle for 1 to 24 hours. Non-adherent cells were washed off by aspiration. CLL cell adhesion was quantified by fluorimetry (Ex/Em=485/520 nm), and visualized directly using the Nikon TE2000 inverted live-cell imaging system.

In series [5] the test system is CLL cells with StromaNKTert. In words: Viability / apoptosis of stroma-exposed CLL cells (Annexin V/PI). Type of series: cell-based, human. On the procedure: CLL cells were cultured under standardized conditions on stromal cell lines or primary NLC. Briefly, stromal cells were seeded one day prior to each experiment onto 24-well plates (Corning Life Sciences) at a concentration of 3×10^5 cells/mL/well and incubated at 37° C. in 5% CO2. Stromal cell confluence was confirmed by phase contrast microscopy, and CLL cells were then added onto the stromal cell layer at a concentration of 3×10^6 cells/mL. Cultures were then treated with compounds for the specified time periods. CLL cells were removed for analysis by gentle pipetting with media, and were then washed in PBS prior to analysis. A 24-hour co-culture time point was used unless otherwise indicated.
CLL cell viability was determined by analysis of Annexin V-FITC (BD Biosciences, San Diego, Calif.) and Propidium Iodine (PI) (Sigma) by FACS.
To determine whether PI3K inhibition increased the sensitivity of stroma-exposed CLL cells by increasing priming, PB-derived CLL cells cultured with or without StromaNKTert cells for 24 hours and were examined using Annexin-PI and BH3 profiling. […] Stromal co-culture of four CLL patient samples led to protection from apoptosis in untreated cells.

Chain of PIP5Kα (Q99755 whole entry): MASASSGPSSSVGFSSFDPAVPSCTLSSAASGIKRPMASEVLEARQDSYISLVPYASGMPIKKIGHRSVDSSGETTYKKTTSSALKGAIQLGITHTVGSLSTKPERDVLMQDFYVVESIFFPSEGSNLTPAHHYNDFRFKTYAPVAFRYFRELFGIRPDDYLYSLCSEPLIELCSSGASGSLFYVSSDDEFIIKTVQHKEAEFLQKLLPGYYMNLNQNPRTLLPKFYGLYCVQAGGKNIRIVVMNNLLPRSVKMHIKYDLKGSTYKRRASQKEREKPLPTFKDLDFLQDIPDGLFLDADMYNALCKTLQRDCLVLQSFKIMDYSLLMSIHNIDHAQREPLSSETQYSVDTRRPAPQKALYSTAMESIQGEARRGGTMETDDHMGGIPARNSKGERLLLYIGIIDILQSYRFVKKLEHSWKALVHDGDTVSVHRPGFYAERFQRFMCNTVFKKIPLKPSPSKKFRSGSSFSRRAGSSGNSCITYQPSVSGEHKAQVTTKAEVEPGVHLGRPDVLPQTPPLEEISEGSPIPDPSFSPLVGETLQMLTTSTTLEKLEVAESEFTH
Protocol for patient MM cells: All MM cell lines were cultured in RPMI1640 medium. Bone marrow stromal cells (BMSCs) were cultured in Dulbecco's modification of Eagle's medium (DMEM) (Sigma) containing 15% fetal bovine serum, 2 mM L-glutamine (Life Technologies), 100 U/mL penicillin, and 100 μg/mL streptomycin (Life Technologies). […] Patient MM and BM cells were obtained from BM samples after informed consent was obtained per the Declaration of Helsinki and approval by the Institutional Review Board of the Dana-Farber Cancer Institute (Boston, Mass.). BM mononuclear cells were separated using Ficoll-Paque™ density sedimentation, and plasma cells were purified (>95% CD138+) by positive selection with anti-CD138 magnetic activated cell separation micro beads (Miltenyi Biotec, Auburn, Calif.). Tumor cells were also purified from the BM of MM patients using the RosetteSep negative selection system (StemCell Technologies, Vancouver, BC, Canada).
Data represent mean±SD viability, assessed by MTT assay of triplicate cultures, expressed as percentage of untreated controls.

A word on the IC50: it is the concentration at which inhibition is half-maximal. The low end stands for higher potency, the high end for lower potency. `CC[C@H](Nc1ncnc2[nH]cnc12)c1nc2cccc(F)c2c(=O)n1-c1ccccc1` [Compound I, 5-fluoro-3-phenyl-2-[1-(9H-purin-6-ylamino)-propyl]-3H-quinazolin-4-one] came in with an IC50 against PIP5Kα of over 1 µM. Also, the figures for the “proliferation of breast cancer cell lines” value in series [1] and in series [1] (listed as compound of formula I) were “reduces cellular proliferation of two breast cancer cell lines” and “inhibits proliferation of breast cancer cell lines”, respectively. In addition, the “cleavage of caspases and PARP” value with INA-6 cells is “Significantly increased cleavage of caspase-8, caspase-9, caspase-3, and PARP”. In addition, the “MM cell growth and cytokine secretion induced by BMSCs” value in [2] (48 h) was “inhibited growth and cytokine secretion”. The “phosphorylation of AKT and ERK induced by BMSCs” value in series [2] (INA-6, 48 h) is listed as “inhibited”. The “pAkt in MCL lines exposed to survival factors” value in [3] was “significant reduction of pAkt”. The “constitutive PI3K signaling in primary MCL cells” value in series [3] (two patients, 0.1 μM or 1 μM) is recorded as “block constitutive PI3K signaling in primary MCL cells of two patients in a dose dependent manner”. Moreover, the “supernatant CCL3 concentration” value in the series on CLL cells (BCR cross-linking, from 4060±1392 pg/mL, mean±SEM, n=6) turned out to be 2901 ± 1220 pg/mL. The “supernatant CCL4 level” value with CLL cells (BCR cross-linking, from 5721±1789 pg/mL, mean±SEM, n=6) was found to be 3223 ± 1311 pg/mL. Further, in the series on CLL cells (human, 48 h), the “CLL cell viability, % of controls” value came out at 85±3%. In the series on CLL-NLC co-cultures (CLL-NLC co-cultures, from 151±35, n=4), this compound showed a CXCL13 level of 70 ± 27 pg/mL. Also, the CCL3 concentration with CLL-NLC co-cultures (CLL-NLC co-cultures, from 943±535 pg/mL, n=5) was found to be 156 ± 8 pg/mL. Besides, the CCL4 concentration in the series on CLL-NLC co-cultures (CLL-NLC co-cultures, from 7433±4463 pg/mL, n=5) is 316 ± 53 pg/mL. Further, the “CLL cell viability, % of untreated controls” value in the series with CLL-NLC co-cultures (human, 48 h) turned out to be 64±6%. In series [4], the “CLL cell adherence to stroma at one hour” value is “reduced adherence of CLL cells was detectable”. Besides, the “CLL cell adherence to stroma at 24 hours” value in series [4] (10 μM) was “exhibited less adherent at 24 hours”. In [5] (10 μM, untreated less than 10%), the “apoptosis in stroma-exposed CLL cells” value was “More than 40%”. Also, the “apoptosis versus control in the absence of stroma” value in series [5] (four patient samples, 24 hours) is on record as “induce more apoptosis than the control”. Besides, the “apoptosis versus control in the presence of stroma” value in series [5] (four patient samples, 24 hours) is “induce significantly more apoptosis than the control”. For the same compound, in series [5] (two patients, 24 hours, ABT-737 100 nM, compound I 10 μM), the “stroma-mediated resistance (CLL cell viability)” value is recorded as “profound stroma-mediated resistance”. Besides, the “sensitivity of CLL cells to ABT-737 in the presence of stroma” value in [5] (two resistant CLL patient samples) is on record as “restored sensitivity of CLL cells to ABT-737 in the presence of stroma”. Also, the “cytotoxicity against patient MM cells” value in the series with patient MM cells is “induced cytotoxicity against patient MM cells”.
